Data published in US20240239755A1, “SUBSTITUTED PYRIDAZINONES, SALTS OR N-OXIDES THEREOF AND THEIR USE AS HERBICIDALLY ACTIVE SUBSTANCES” (Bayer Aktiengesellschaft, priority 2021, published 2024).

What was measured:
Type in all cases: in vivo
Setaria viridis (SETVI) = assay: Herbicidal post-emergence action, 1280 g/ha (Table B8); details: visual assessment after ca. 3 weeks vs untreated controls
Summary of the method: (§1)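 Read-out is visual herbicidal effect in percent against untreated controls (100% = dead plants, 0% = like controls), scored about 3 weeks after treatment. Plants at the single-leaf stage were sprayed on green parts with aqueous WP or EC preparations containing 0.5% additive, 600 L water/ha.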

Kochia scoparia (KCHSC) [1] = assay: Herbicidal post-emergence action, 320 g/ha, KCHSC; details: visual grading after ca. 3 weeks
Summary of the method: (§2)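 Greenhouse post-emergence test on weeds grown in sandy loam and treated at the single-leaf stage; damage was scored visually as percent of untreated controls after about 3 weeks.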

Veronica persica (VERPE) [2] = assay: Herbicidal post-emergence action, 1280 g/ha, VERPE; details: visual grading vs untreated controls
Summary of the method: (§3)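 Pot-grown weeds in sandy loam sprayed post-emergence at the single-leaf stage, 2–3 weeks after sowing, with WP or EC formulations plus 0.5% additive in 600 L water/ha at 1280 g/ha. After ca. 3 weeks in the greenhouse, damage scored visually as % effect versus untreated controls (100% = plants dead).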

[3] = test system: Matricaria inodora (MATIN); assay: Herbicidal post-emergence action, 320 g/ha, MATIN; details: visual grading after ca. 3 weeks
Summary of the method: as §2

[4] = test system: Amaranthus retroflexus (AMARE); assay: Herbicidal post-emergence action, 1280 g/ha, AMARE; details: visual grading vs untreated controls
Summary of the method: as §3

[5] = test system: Echinochloa crus-galli (ECHCG); assay: Herbicidal post-emergence action, 320 g/ha, ECHCG; details: visual grading after ca. 3 weeks
Excerpt: (§4) Seeds of mono- and dicotyledonous weed plants were sown in plastic pots (double sowings with one species of mono- and one species of dicotyledonous weed plants per pot), in sandy loam, covered with soil and grown under controlled growth conditions. 2 to 3 weeks after sowing, the test plants were sprayed in the single-leaf stage. The compounds according to the invention, formulated in the form of wettable powders (WP) or as emulsifiable concentrates (EC), were sprayed onto the green plant parts as an aqueous suspension or as an emulsion, with the addition of 0.5% of an additive, at an application rate of 600 litres of water per hectare (converted). The test plants were placed in the greenhouse for ca. 3 weeks under optimum growth conditions, and then the effect of the preparations was assessed visually in comparison with untreated controls (herbicidal effect in percent (%): 100% effect=plants have died, 0% effect=as control plants).
Tables D1 to D8 below, show the effects of selected compounds of the general formula (I) according to Table 1 on various harmful plants using an application rate corresponding to 320 g/ha obtained by the experimental procedure mentioned above.

[6] = test system: Matricaria inodora (MATIN); assay: Herbicidal post-emergence action, 1280 g/ha (Table B6); details: visual assessment after ca. 3 weeks vs untreated controls
Summary of the method: as §1

Stellaria media (STEME) [7] = assay: Herbicidal post-emergence action, 1280 g/ha (Table B9); details: visual assessment after ca. 3 weeks vs untreated controls
Summary of the method: as §1

[8] = test system: Echinochloa crus-galli (ECHCG); assay: Herbicidal post-emergence action, 1280 g/ha (Table B3); details: visual assessment after ca. 3 weeks vs untreated controls
Summary of the method: as §1

Kochia scoparia (KCHSC) [9] = assay: Herbicidal post-emergence action, 1280 g/ha (Table B4); details: visual assessment after ca. 3 weeks vs untreated controls
Summary of the method: as §1

Stellaria media (STEME) [10] = assay: Herbicidal post-emergence action, 320 g/ha, STEME; details: visual grading after ca. 3 weeks
Summary of the method: as §2

[11] = test system: Amaranthus retroflexus (AMARE); assay: Herbicidal post-emergence action, 320 g/ha, AMARE; details: visual grading after ca. 3 weeks
Summary of the method: as §2

[12] = test system: Digitaria sanguinalis (DIGSA); assay: Herbicidal pre-emergence action, 1280 g/ha (Table A3); details: visual grading after ca. 3 weeks vs untreated controls
Excerpt: (§5) Seeds of mono- and dicotyledonous weed plants were sown in plastic pots (double sowings with one species of mono- and one species of dicotyledonous weed plants per pot), in sandy loam, and covered with soil. The compounds according to the invention, formulated in the form of wettable powders (WP) or as emulsifiable concentrates (EC), were applied to the surface of the covering soil as an aqueous suspension or as an emulsion, with the addition of 0.5% of an additive, at an application rate of 600 litres of water per hectare (converted). Following treatment, the pots were placed in a greenhouse and kept under optimum growth conditions for the test plants. The visual grading of the damage to the test plants was carried out after ca. 3 weeks in comparison to untreated controls (herbicidal effect in percent (%): 100% effect=plants have died, 0% effect=as control plants). Tables A1 to A11 below, show the effects of selected compounds of the general formula (I) according to Table 1 on various harmful plants and an application rate corresponding to 1280 g/ha obtained by the experimental procedure mentioned above.

Kochia scoparia (KCHSC) [13] = assay: Herbicidal pre-emergence action, 1280 g/ha (Table A4); details: visual grading after ca. 3 weeks vs untreated controls
Summary of the method: (§6)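 Read-out: visual % damage at ca. 3 weeks versus untreated controls (100% = plants died). Treatment applied pre-emergence to covering soil in sandy loam pots as aqueous WP/EC with 0.5% additive, 600 L/ha; greenhouse at optimum growth conditions.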

Poa annua (POAAN) [14] = assay: Herbicidal pre-emergence action, 1280 g/ha (Table A7); details: visual grading after ca. 3 weeks vs untreated controls
Summary of the method: as §6

[15] = test system: Amaranthus retroflexus (AMARE); assay: Herbicidal pre-emergence action, 1280 g/ha (Table A11); details: visual grading after ca. 3 weeks vs untreated controls
Summary of the method: as §6

[16] = test system: Matricaria inodora (MATIN); assay: Herbicidal pre-emergence action, 1280 g/ha (Table A6); details: visual grading after ca. 3 weeks vs untreated controls
Summary of the method: as §6

Poa annua (POAAN) [17] = assay: Herbicidal pre-emergence action, 320 g/ha, POAAN; details: visual grading after ca. 3 weeks
Excerpt: as §5, with “plants).” for “plants). Tables A1 to A11 below, show the effects of selected compounds of the general formula (I) according to Table 1 on various harmful plants and an application rate corresponding to 1280 g/ha obtained by the experimental procedure mentioned above.”
Tables C1 to C6 below, show the effects of selected compounds of the general formula (I) according to Table 1 on various harmful plants using an application rate corresponding to 320 g/ha obtained by the experimental procedure mentioned above.

[18] = test system: Alopecurus myosuroides (ALOMY); assay: Herbicidal pre-emergence action, 1280 g/ha (Table A2); details: visual grading after ca. 3 weeks vs untreated controls
Excerpt: as §5

Lolium rigidum (LOLRI) [19] = assay: Herbicidal post-emergence action, 1280 g/ha (Table B5); details: visual assessment after ca. 3 weeks vs untreated controls
Summary of the method: as §1

Veronica persica (VERPE) [20] = assay: Herbicidal post-emergence action, 320 g/ha, VERPE; details: visual grading after ca. 3 weeks
Summary of the method: as §2

Lolium rigidum (LOLRI) [21] = assay: Herbicidal pre-emergence action, 1280 g/ha (Table A5); details: visual grading after ca. 3 weeks vs untreated controls
Summary of the method: as §6

Stellaria media (STEME) [22] = assay: Herbicidal pre-emergence action, 1280 g/ha (Table A9); details: visual grading after ca. 3 weeks vs untreated controls
Summary of the method: as §6

[23] = test system: Abutilon theophrasti (ABUTH); assay: Herbicidal post-emergence action, 320 g/ha, ABUTH; details: visual grading after ca. 3 weeks
Summary of the method: as §2

Poa annua (POAAN) [24] = assay: Herbicidal post-emergence action, 1280 g/ha (Table B7); details: visual assessment after ca. 3 weeks vs untreated controls
Excerpt: as §4, with “plants). Tables B1 to B11 below, show the effects of selected compounds of the general formula (I) according to Table 1 on various harmful plants using an application rate corresponding to 1280 g/ha obtained by the experimental procedure mentioned above.” for “plants).”

[25] = test system: Abutilon theophrasti (ABUTH); assay: Herbicidal post-emergence action, 1280 g/ha (Table B1); details: visual assessment after ca. 3 weeks vs untreated controls
Summary of the method: as §1

Lolium rigidum (LOLRI) [26] = assay: Herbicidal post-emergence action, 320 g/ha, LOLRI; details: visual grading after ca. 3 weeks
Summary of the method: as §2

Lolium rigidum (LOLRI) [27] = assay: Herbicidal pre-emergence action, 320 g/ha (Table C2); details: visual grading after ca. 3 weeks vs untreated controls
Summary of the method: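 Applied pre-emergence to the surface of soil covering weed seeds sown in sandy loam, as WP or EC formulations in water with 0.5% additive at 600 L/ha. Greenhouse-grown; damage graded visually at ca. 3 weeks as percent of untreated controls (100% = plants died).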

Compound | herbicidal effect KCHSC (Kochia scoparia (KCHSC) [1]) [%] | herbicidal effect VERPE (Veronica persica (VERPE) [2]) [%] | herbicidal effect MATIN [3] [%] | herbicidal effect AMARE [4] [%] | herbicidal effect ECHCG [5] [%] | herbicidal effect MATIN [6] [%] | herbicidal effect STEME (Stellaria media (STEME) [7]) [%] | herbicidal effect ECHCG [8] [%] | herbicidal effect KCHSC (Kochia scoparia (KCHSC) [9]) [%] | herbicidal effect STEME (Stellaria media (STEME) [10]) [%] | herbicidal effect AMARE [11] [%] | herbicidal effect POAAN (Poa annua (POAAN) [14]) [%] | herbicidal effect AMARE [15] [%] | herbicidal effect MATIN [16] [%] | herbicidal effect LOLRI (Lolium rigidum (LOLRI) [19]) [%] | herbicidal effect LOLRI (Lolium rigidum (LOLRI) [21]) [%] | herbicidal effect STEME (Stellaria media (STEME) [22]) [%] | herbicidal effect ABUTH [23] [%] | herbicidal effect ABUTH [25] [%] | further results
Cc1nn(C)c(=O)c(Oc2ccc(Cl)cc2Cl)c1OC(=O)C1CCC1 [Example I-064] | 100 | 90 | 90 | 100 | 100 | 100 | 100 | 100 | 100 | 90 | 100 |  |  |  |  |  |  |  |  | herbicidal effect SETVI (Setaria viridis (SETVI)): 90%
Cc1nn(C)c(=O)c(Oc2cc(Cl)c(Cl)c(Cl)c2)c1O [Example I-077] |  |  |  |  |  |  | 100 | 90 |  | 90 |  | 100 | 100 | 100 |  |  |  |  |  | herbicidal effect DIGSA [12]: 100%; herbicidal effect KCHSC (Kochia scoparia (KCHSC) [13]): 90%
Cc1nn(C)c(=O)c(Oc2ccccc2OC(F)(F)F)c1O [Example I-008] |  |  |  |  |  |  |  |  |  |  |  | 100 |  |  |  |  |  |  |  | herbicidal effect POAAN (Poa annua (POAAN) [17]): 100%; herbicidal effect ALOMY [18]: 100%
CCOC(=O)Oc1c(C)nn(C)c(=O)c1Oc1ccccc1Cl [Example I-010] | 100 | 90 | 100 | 100 |  | 100 | 100 | 90 | 100 | 100 | 100 | 90 | 90 | 100 | 100 | 100 | 90 | 90 | 100 | herbicidal effect VERPE (Veronica persica (VERPE) [20]): 90%; herbicidal effect POAAN (Poa annua (POAAN) [24]): 100%
Cc1nn(C)c(=O)c(Oc2cc(Cl)ccc2Cl)c1O [Example I-016] | 90 | 90 | 90 | 100 | 90 | 90 | 100 | 90 | 100 | 100 | 100 |  | 90 | 100 | 90 | 100 | 100 | 100 | 100 | herbicidal effect LOLRI (Lolium rigidum (LOLRI) [26]): 90%; herbicidal effect LOLRI (Lolium rigidum (LOLRI) [27]): 90%
